Test results published in PMC10541456, “A phase I, single‐center, open‐label study to investigate the absorption, distribution, metabolism and excretion of encorafenib following a single oral dose of 100 mg [ ^14C] encorafenib in healthy male subjects” (Pharmacology Research & Perspectives, 2023).

Columns and labels:
[1] = Metabolite profiles in plasma (UPLC, radioactivity detection, MS); type: in vivo, human; settings: for Mean (range) Circulating Radioactivity in Plasma Based on AUC0-24: 100 mg oral [14C] encorafenib; for Mean (range) Circulating Radioactivity in Plasma Based on AUC0-24 (%): M12.8 value is sum of M12.8 and M13.2
Procedure: To the thawed plasma samples (1.5 mL plasma/ time points) two volumes of ice‐cold acetonitrile:ethanol:acetic acid (90:10:0.1, v/v) were added, followed by vortex mixing (10 min) and sonication (10 min). After centrifugation, the supernatants (4.2 mL) were evaporated to near dryness under a gentle stream of nitrogen on a TurboVap LV (Zymark Corp.). The residues were reconstituted in 80 μL of methanol:water:acetic acid (50:50:0.1, v/v) and 45 μL were injected into the ultra‐performance liquid chromatography (UPLC) system with off‐line radioactivity detection.
Characterization and quantification of the metabolites of encorafenib in select human plasma and excreta samples were performed by the Department of DMPK (Drug Metabolism and Pharmacokinetics) at the Novartis Institutes for Biomedical Research (East Hanover, NJ, USA) using liquid chromatography (LC) coupled to radioactivity detectors and mass spectrometers (MS).
The analytical system consisted of a Waters ACQUITY UPLC system (Waters), equipped with a Phenomenex Luna PFP column (3 μm, 4.6 × 150 mm) (Phenomenex) and a guard column of the same phase, both maintained at a temperature of 30°C. The mobile phases consisted of 10 mM ammonium acetate containing 0.1% formic acid (v/v) (solvent A) and CH3CN (solvent B). The total run time was 80 min. A linear gradient elution program was used with a flow rate of 1 mL/min as described in Table 1.
The UPLC effluent was split 4:1, with […] of the total flow introduced to the mass spectrometer for mass spectral analysis and the remaining flow used for radioactivity detection.
For off‐line radioactivity detection, the eluant was collected into 96‐well Lumaplate (Packard Instrument Co) microplates using a Collect Pal fraction collector (Leap Technologies) with a collection time of 10 seconds per well. The LumaPlates were sealed after drying and counted for 10–50 min per well on a Packard Topcount microplate scintillation counter. The structural characterization of metabolites was carried out using the above UPLC profiling method coupled to a two‐channel Z‐spray (LockSprayTM) time‐of‐flight mass spectrometer (Synapt MS). Leucine enkephalin was used as the mass reference standard for exact mass measurements and was delivered via the second spray channel at a flow rate of 5 μL/minute. The mass spectrometer was operated at a resolution of ~10 000 m/ΔmFWHM with spectra being collected from 100 to 1000 amu. The ionization technique employed was positive electrospray. The sprayer voltage was kept at 3100 V and the sampling cone voltage was kept at a potential of 20 V. For the time‐of‐flight MS/MS experiments, trap energies of 25 to 45 eV and transfer energy of 15 eV were used with argon as the collision gas.
All radioactivity data were transferred to Laura software (version 4.2.2.24, Lab Logic Ltd, UK) to generate and integrate radio‐chromatograms. Radioactive peaks for quantitative analysis were manually selected from the plots. The radioactivity in the region encompassing the beginning and end of the peak was summed. All further calculations were based on radioactivity.
The percent of radioactivity (%RA) in a particular peak, Z, was calculated as follows in Equation (1): (1) %RAinZ=DPMin PeakZ/totalDPMinallintegrated peaksx100
The concentration or amount of each component was calculated as % RA (expressed as a fraction) multiplied by the total concentration of radioactivity in plasma, or the percent of dose in the excreta.

[2] = set-up: method as in data on file; settings: ref data on file; cited from earlier work
[3] = test system: A375 (BRAF V600E) melanoma cell proliferation; set-up: method as in data on file; settings: fraction of encorafenib potency; ref data on file; cited from earlier work

SMILES	Mean (range) Circulating Radioactivity in Plasma Based on AUC0-24 [1]	Mean (range) Circulating Radioactivity in Plasma Based on AUC0-24 (%) [1]	In vitro safety pharmacology result [2]	Potency relative to encorafenib against A375 cell proliferation [3]
CC(O)CNc1nccc(-c2cn(C(C)C)nc2-c2cc(Cl)cc(NS(C)(=O)=O)c2F)n1 (stereo not drawn) [M44]	806 (525–1250) ngEq/mL*h	5.09 (4.02–6.36) %	–	–
CC(C)n1cc(-c2ccnc(N)n2)c(-c2cc(Cl)cc(NS(C)(=O)=O)c2F)n1 [M42.5A]	2430 (1740–3320) ngEq/mL*h	15.5 (13.4–17.4) %	no significant safety signal	approximately 1/30
